Assay results published in PMC6270205, “Antimicrobial and Selected In Vitro Enzyme Inhibitory Effects of Leaf Extracts, Flavonols and Indole Alkaloids Isolated from Croton menyharthii” (Molecules, 2013).
Values after ≈ are worked out from the molar mass of the structure shown. Where two headings read alike, the source gives them in different places.

How the values were obtained:
yeast α-glucosidase = biological target: T1, yeast α-glucosidase (Saccharomyces cerevisiae, UniProt P53341); experiment: α-Glucosidase inhibitory activity; format: biochemical, Saccharomyces cervisiae
T1 construct: purchased Sigma-Aldrich
Protocol: All thin layer chromatography analyses were performed at room temperature using pre-coated plates (MERCK, silica gel 60 F254 0.2 thickness). Detection of spots was done by viewing under UV light (254 and 366 nm). Open column chromatography was carried out using silica gel (230-400 mesh) and Sephadex LH-20. Nuclear magnetic resonance (NMR) data were obtained using Bruker spectrometers (400 and 500 MHz). Chemical shifts are expressed in parts per million (ppm).
α-Glucosidase inhibitory activity was determined as previously described by Tao et al. with modifications as detailed by Rengasamy et al.. Briefly, yeast α-glucosidase (0.1 Unit/mL) was dissolved in 0.1 M potassium phosphate buffer (pH 6.8), this was used as the enzyme solution. The control experiment contained the same reaction mixture, but the sample solution was replaced with the same volume of phosphate buffer. […] The determinations were carried out in triplicate. The percentage inhibition (%) was calculated using the following equation: % Inhibition = (Acontrol − Asample)/Acontrol × 100(1) where Acontrol is the absorbance of the control and Asample is the absorbance of the sample. The IC50, which is the concentration of the sample required to inhibit 50% of the enzyme was determined for each sample.

[1] = test system: Candida albicans (ATCC 10231); experiment: Antifungal microdilution bioassay (MIC); format: cell-based
Protocol: The antifungal activity of the crude methanol extract, fractions and isolated compounds were evaluated against Candida albicans (ATCC 10231) using the micro-dilution assay, modified for an antifungal assay. An overnight fungal culture was prepared in 10 mL yeast malt (YM) broth. Four hundred microliters of the overnight Candida culture were added to 4 mL of sterile saline solution. The absorbance was read at 530 nm and adjusted with sterile saline solution to match that of a […] McFarland standard solution. From this prepared stock, a 1:1000 dilution with sterile YM broth was prepared to give an approximately 10^6 cfu/mL culture. One hundred microlitres of the resuspended (in 70% aqueous acetone) crude extract, fractions (50 mg/mL) or compounds (1 mg/mL) were two-fold serially diluted with sterile distilled water, in duplicate down a 96-well microtitre plate. A similar 2-fold serial dilution of amphotericin B (Sigma, 2.5 mg/mL) was used as a positive control. Water, 70% aqueous acetone and fungal free broth were included as negative/solvent controls. The screening was done in triplicate and repeated twice for each extract, the MIC and MFC values were recorded.

[2] = biological target: T2, human recombinant COX-2 enzyme (Homo sapiens, UniProt P35354); experiment: Cyclooxygenase (COX-2) inhibitory bioassay; format: biochemical; conditions: read-out: COX-2 inhibitory activity level
T2 construct: His6 (N); purchased Sigma-Aldrich; host or cells: Baculovirus overexpression system in Sf 21 cells
T2 sequence (P35354 18-604): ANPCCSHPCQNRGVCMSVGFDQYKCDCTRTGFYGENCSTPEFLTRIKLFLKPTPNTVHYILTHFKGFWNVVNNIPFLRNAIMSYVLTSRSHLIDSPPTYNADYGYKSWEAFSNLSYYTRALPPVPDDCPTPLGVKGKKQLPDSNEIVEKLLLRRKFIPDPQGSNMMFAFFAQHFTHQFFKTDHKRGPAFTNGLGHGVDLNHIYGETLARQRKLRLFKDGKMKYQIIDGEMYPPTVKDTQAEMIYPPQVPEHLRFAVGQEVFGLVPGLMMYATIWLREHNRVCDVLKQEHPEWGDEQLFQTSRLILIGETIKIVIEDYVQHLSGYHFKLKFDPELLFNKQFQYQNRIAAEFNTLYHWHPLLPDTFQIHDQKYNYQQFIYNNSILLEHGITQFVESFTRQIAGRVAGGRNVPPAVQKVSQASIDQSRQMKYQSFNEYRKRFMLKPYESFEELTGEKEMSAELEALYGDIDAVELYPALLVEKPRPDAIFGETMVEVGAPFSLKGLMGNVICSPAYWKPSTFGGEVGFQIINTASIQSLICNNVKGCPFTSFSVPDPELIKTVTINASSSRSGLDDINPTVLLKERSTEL

[3] = biological target: T3, AChE (isolated from electric eels) (Electrophorus electricus, UniProt O42275); experiment: biochemical
T3 construct: AChE (isolated from electric eels) (type VI-S lyophilized powder); purchased Sigma-Aldrich type VI-S lyophilized powder; host or cells: isolated from electric eels
Protocol: Inhibition of AChE by the crude methanol extract, fractions and isolated compounds was done as described by Ellman et al. with some modifications. The acetylcholinesterase enzyme activity was measured by spectrophotometric observation of the increase in a yellow colour produced from thiocholine when it reacts with the dithiobisnitrobenzoate ion. AChE (isolated from electric eels) (type VI-S lyophilized powder) was obtained from Sigma-Aldrich. The assay was carried out in a 96-well microtitre plate. The crude methanol extract, fractions and isolated compounds were at initial concentrations of 10 mg/mL (crude extract and fractions) and 1 mg/mL (pure compounds). The increase in absorbance due to the spontaneous hydrolysis of the substrate was corrected by subtracting the ratio of reaction before adding the enzyme from the rate after adding the enzyme (0.2 U/mL). Percentage of inhibition was calculated by comparing the reaction rates for the sample to the negative control. […] The IC50 values of extracts and compounds were calculated using Graph Pad Prism (version 5.0) statistical software programme for Windows (GraphPad Software Inc.).

[4] = test system: Klebsiella pneumoniae ATCC 13883; experiment: Antibacterial microdilution bioassay (MIC); format: cell-based; conditions: for MIC: Klebsiella pneumoniae
Protocol: (§1) Minimum inhibitory concentration (MIC) values for antibacterial activity of the crude methanol extract, fractions and isolated compounds were determined using the microdilution bioassay in a 96-well (Greiner Bio-one GmbH, Frickenhausen, Germany) microtitre plates. One hundred microlitres of the resuspended (in 70% aqueous acetone) crude extract, fractions (50 mg/mL) or compounds (1 mg/mL) was two-fold serially diluted with sterile distilled water, in duplicate down the microtitre plate for each of the four bacteria used. A similar two-fold serial dilution of neomycin (Sigma) (0.1 mg/mL) was used as a positive control against each bacterium. Water and 70% aqueous acetone were included as a negative/solvent controls. The screening was done in triplicate and repeated twice for each extract.

[5] = test system: Escherichia coli ATCC 11775; experiment: Antibacterial microdilution bioassay (MIC); format: cell-based; conditions: for Antimicrobial MIC E.c.: n = 3
Protocol: as §1

[6] = test system: Bacillus subtilis ATCC 6051; experiment: Antibacterial microdilution bioassay (MIC); format: cell-based; conditions: for Antimicrobial MIC B.s.: n = 3
Protocol: as §1

[7] = test system: Staphylococcus aureus ATCC 12600; experiment: Antibacterial microdilution bioassay (MIC); format: cell-based; conditions: for Antimicrobial MIC S.a.: n = 3
Protocol: as §1

[8] = read-out: α-Glucosidase inhibitory activity Percentage inhibition
[9] = ATCC10231, read-out: Antimicrobial MIC C.a.
[10] = ATCC10231, n = 3, read-out: Antimicrobial MIC C.a.
[11] = pure compounds at 300 µg/mL, mean ± standard error, read-out: AChE inhibitory activity Percentage inhibition
[12] = ATCC13883, Klebsiella pneumonia, n = 3, read-out: Antimicrobial MIC K.p.
[13] = ATCC11775, n = 3, read-out: Antimicrobial MIC E.c.
[14] = ATCC6051, n = 3, read-out: Antimicrobial MIC B.s.
[15] = ATCC12600, n = 3, read-out: Antimicrobial MIC S.a.
[16] = pure compounds at 300 µg/mL, mean ± standard error

T1 sequence (P53341 whole entry): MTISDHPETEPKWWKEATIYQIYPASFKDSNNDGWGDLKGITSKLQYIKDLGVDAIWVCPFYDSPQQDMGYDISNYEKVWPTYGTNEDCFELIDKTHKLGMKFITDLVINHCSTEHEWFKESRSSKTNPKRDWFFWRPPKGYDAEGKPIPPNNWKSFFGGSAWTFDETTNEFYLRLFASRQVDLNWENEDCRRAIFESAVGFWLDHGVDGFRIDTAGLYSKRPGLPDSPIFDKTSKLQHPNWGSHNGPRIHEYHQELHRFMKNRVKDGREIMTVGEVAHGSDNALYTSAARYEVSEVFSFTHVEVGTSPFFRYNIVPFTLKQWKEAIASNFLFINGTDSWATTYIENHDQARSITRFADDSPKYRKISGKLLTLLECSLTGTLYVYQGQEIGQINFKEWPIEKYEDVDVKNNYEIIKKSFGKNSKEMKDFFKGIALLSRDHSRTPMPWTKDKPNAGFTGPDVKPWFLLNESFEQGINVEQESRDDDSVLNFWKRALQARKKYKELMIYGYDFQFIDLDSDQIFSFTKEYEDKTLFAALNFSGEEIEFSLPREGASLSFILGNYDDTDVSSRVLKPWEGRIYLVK
T3 sequence (O42275 24-633): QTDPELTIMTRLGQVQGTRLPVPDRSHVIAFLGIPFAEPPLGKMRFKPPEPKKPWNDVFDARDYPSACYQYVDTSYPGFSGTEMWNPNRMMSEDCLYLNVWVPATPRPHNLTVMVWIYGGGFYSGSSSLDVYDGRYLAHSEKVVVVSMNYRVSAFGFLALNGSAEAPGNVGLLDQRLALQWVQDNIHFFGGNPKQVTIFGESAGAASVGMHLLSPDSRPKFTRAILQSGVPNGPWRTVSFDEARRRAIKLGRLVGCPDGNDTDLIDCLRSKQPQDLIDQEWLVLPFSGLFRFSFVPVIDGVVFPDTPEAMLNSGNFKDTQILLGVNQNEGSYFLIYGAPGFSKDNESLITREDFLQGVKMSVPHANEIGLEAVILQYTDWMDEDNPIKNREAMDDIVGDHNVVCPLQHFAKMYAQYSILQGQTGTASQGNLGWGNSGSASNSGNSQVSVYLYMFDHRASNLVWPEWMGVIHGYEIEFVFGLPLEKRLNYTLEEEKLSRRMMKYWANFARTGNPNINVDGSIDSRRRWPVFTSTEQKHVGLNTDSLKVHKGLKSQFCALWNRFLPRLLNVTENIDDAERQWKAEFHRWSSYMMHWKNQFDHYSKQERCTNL

## C[C@H]1O[C@H](O[C@H]2[C@H](O)[C@@H](O)[C@@H](O[C@H]3[C@H](O)[C@@H](O)C(O)O[C@@H]3CO)O[C@@H]2CO)[C@H](O)[C@@H](O)[C@@H]1N[C@H]1C=C(CO)[C@@H](O)[C@H](O)[C@H]1O (stereo partly shown) [Acarbose, acarbose, reference compound]
Yeast α-glucosidase; [8]
  inhibition at 250 µg/mL: 83.6 ± 2.6%

## C[C@@H]1[C@H](O)[C@@H](C)/C=C/C=C/C=C/C=C/C=C/C=C/C=C/[C@H](O[C@@H]2O[C@H](C)[C@@H](O)[C@H](N)[C@@H]2O)C[C@@H]2O[C@](O)(C[C@@H](O)C[C@@H](O)[C@H](O)CC[C@@H](O)C[C@@H](O)CC(=O)O[C@H]1C)C[C@H](O)[C@H]2C(=O)O [Amphotericin B, amphotericin B, reference compound]
[1]; [9]
  MIC: 9.77 µg/mL (≈ 10.6 µM)

## CC1OC(Oc2c(-c3cc(O)c(O)c(O)c3)oc3cc(O)cc(O)c3c2=O)C(O)C(O)C1O (stereo not shown) [Myricetrin-3-O-rhamnoside (1), Myricetrin-3-O-rhamnoside]
Yeast α-glucosidase
  IC50: 170 µM
Yeast α-glucosidase; [8]
  inhibition at 300 µg/mL: 89.1 ± 5.3%
[2]
  inhibition at 25 µg/mL: < 20%
[1]; [9]
  MIC: 250 µg/mL (≈ 538 µM)
[3]
  IC50: 140 µM
[3]; read-out: AChE inhibitory activity Percentage inhibition
  inhibition at 300 µg/mL: 54.3 ± 1.1%
[4]; ATCC13883, read-out: Antimicrobial MIC K.p.
  MIC: 250 µg/mL (≈ 538 µM)
[5]; ATCC11775, read-out: Antimicrobial MIC E.c.
  MIC: 250 µg/mL (≈ 538 µM)
[6]; ATCC6051, read-out: Antimicrobial MIC B.s.
  MIC: 250 µg/mL (≈ 538 µM)
[7]; ATCC12600, read-out: Antimicrobial MIC S.a.
  MIC: 250 µg/mL (≈ 538 µM)

## O=c1c(O)c(-c2ccc(O)c(O)c2)oc2cc(O)cc(O)c12 [Quercetin (3), 3,3', 4',5,7-pentahydroxyflavone]
Yeast α-glucosidase; [8]
  inhibition at 300 µg/mL: 67.1 ± 4.2%
[1]; [10]
  MIC: 20 µg/mL (≈ 66.2 µM)
[3]; [11]
  inhibition at 300 µg/mL: 56.6 ± 0.3%
[4]; [12]
  MIC: 250 µg/mL (≈ 827 µM)
[5]; [13]
  MIC: > 250 µg/mL
[6]; [14]
  MIC: 30 µg/mL (≈ 99.3 µM)
[7]; [15]
  MIC: > 250 µg/mL

## O=C(/C=C/c1ccc(O)cc1)NCCc1c[nH]c2ccc(O)cc12 [Trans-N-(p-coumaroyl) serotonin (4), (E)-N-(4-hydroxycinnamoyl)-5-hydroxytryptamine]
Yeast α-glucosidase
  IC50: 16.4 µM
Yeast α-glucosidase; [8]
  inhibition at 300 µg/mL: 97.3 ± 3.2%
[1]; [10]
  MIC: 130 µg/mL (≈ 403 µM)
[3]; mean ± standard error, read-out: AChE inhibitory activity IC50 (converted)
  IC50: 46.5 µM
[3]; [11]
  inhibition at 300 µg/mL: 72.6 ± 4.9%
[3]; pure compounds at 300 µg/mL, read-out: AChE inhibitory activity level
  inhibition at 300 µg/mL: 70 to 100%
[4]; [12]
  MIC: 250 µg/mL (≈ 776 µM)
[5]; [13]
  MIC: 250 µg/mL (≈ 776 µM)
[6]; [14]
  MIC: 250 µg/mL (≈ 776 µM)
[7]; [15]
  MIC: 250 µg/mL (≈ 776 µM)

## Quercetin-3-O-rhamnoside [Quercetin-3-O-rhamnoside (2)]
Yeast α-glucosidase; [16]
  α-Glucosidase inhibitory activity Percentage inhibition: 47.0 ± 1.7 a
[1]; n = 3
  Antimicrobial MIC C.a.: 250 µg/mL
[3]; [16]
  AChE inhibitory activity Percentage inhibition: 53.3 ± 1.0 b,c
[4]; Klebsiella pneumonia, n = 3
  Antimicrobial MIC K.p.: >250 µg/mL
[5]
  Antimicrobial MIC E.c.: >250 µg/mL
[6]
  Antimicrobial MIC B.s.: 130 µg/mL
[7]
  Antimicrobial MIC S.a.: >250 µg/mL

## neomycin [reference compound]
[4]; Klebsiella pneumonia, n = 3
  Antimicrobial MIC K.p.: 0.8 µg/mL
[5]
  Antimicrobial MIC E.c.: 0.8 µg/mL
[6]
  Antimicrobial MIC B.s.: 1.6 µg/mL
[7]
  Antimicrobial MIC S.a.: 1.6 µg/mL
